Measurements taken from US11986471B2, “Compounds and methods of use” (Tango Therapeutics, Inc., priority 2018, dated 2024).

How the values were obtained:
[1] = target: T1, PRMT5 (Homo sapiens, UniProt O14744); assay: PRMT5 IC50 assay in the presence of SAM as cofactor; format: biochemical
T1 construct: purchased Viva (custom protein)
Procedure, shortened: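 Human PRMT5 inhibition, IC50 in μM; cofactor varied (SAM / MTA / none).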

[2] = target: T1, PRMT5; assay: PRMT5 IC50 assay with no cofactor; format: biochemical
Procedure, shortened: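 Potency against PRMT5 is compared across cofactor states, where IC50 equals Ki×1.5 with SAM present and Ki×13.5 with MTA present.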

[3] = target: T1, PRMT5; assay: PRMT5 IC50 assay in the presence of MTA as cofactor; format: biochemical; conditions: for IC50: PRMT5, MTA as cofactor; for SAM/MTA Ratio: ratio between the Ki in the presence of SAM and the Ki in the presence of MTA
Procedure, shortened: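 Three cofactor conditions are run: SAM-bound, MTA-bound and cofactor-free enzyme. IC50 is read from each; for the SAM and MTA arms it is divided by 1.5 and 13.5 respectively to give Ki.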

[4] = tested on: HAP1 MTAP-intact; assay: SDMA in-cell western assay, HAP1 MTAP-intact cell line; format: cell-based; conditions: Homo sapiens
Procedure, shortened: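 HAP1 isogenic pair: endogenous MTAP vs MTAP-null. Readout SDMA by in-cell western; IC50 per line. Ratio ≥3 fold = MTAP-selective.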

[5] = tested on: HAP1 MTAP-deleted; assay: SDMA in-cell western assay, HAP1 MTAP-deleted cell line; format: cell-based; conditions: for IC50: Homo sapiens, HAP1 MTAP-deleted cell line; for MTAP Intact/Deleted Ratio: IC50 ratio HAP1 MTAP-intact / HAP1 MTAP-deleted
Procedure, shortened: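 IC50 from SDMA in-cell western; HAP1 line lacking MTAP (null), paired isogenically with MTAP-intact HAP1 expressing endogenous MTAP.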

T1 sequence (O14744 whole entry): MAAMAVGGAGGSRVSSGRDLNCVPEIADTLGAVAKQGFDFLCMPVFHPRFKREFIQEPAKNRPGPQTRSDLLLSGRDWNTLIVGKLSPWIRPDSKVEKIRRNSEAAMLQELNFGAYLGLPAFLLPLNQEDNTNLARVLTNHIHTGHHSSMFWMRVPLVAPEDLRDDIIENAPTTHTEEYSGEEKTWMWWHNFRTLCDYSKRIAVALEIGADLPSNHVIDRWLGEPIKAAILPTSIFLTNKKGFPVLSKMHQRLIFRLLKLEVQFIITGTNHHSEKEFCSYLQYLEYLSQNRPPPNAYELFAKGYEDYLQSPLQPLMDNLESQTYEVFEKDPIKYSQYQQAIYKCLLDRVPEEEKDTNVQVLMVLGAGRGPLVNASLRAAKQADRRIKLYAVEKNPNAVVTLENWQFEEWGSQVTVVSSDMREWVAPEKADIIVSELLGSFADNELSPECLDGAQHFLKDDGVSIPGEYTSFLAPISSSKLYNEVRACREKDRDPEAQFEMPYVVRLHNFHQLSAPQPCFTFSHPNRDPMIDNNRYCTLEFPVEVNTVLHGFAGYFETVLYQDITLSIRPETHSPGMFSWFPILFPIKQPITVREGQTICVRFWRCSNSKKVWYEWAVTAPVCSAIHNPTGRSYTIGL
T1 sequence (Q9BQA1 whole entry partner): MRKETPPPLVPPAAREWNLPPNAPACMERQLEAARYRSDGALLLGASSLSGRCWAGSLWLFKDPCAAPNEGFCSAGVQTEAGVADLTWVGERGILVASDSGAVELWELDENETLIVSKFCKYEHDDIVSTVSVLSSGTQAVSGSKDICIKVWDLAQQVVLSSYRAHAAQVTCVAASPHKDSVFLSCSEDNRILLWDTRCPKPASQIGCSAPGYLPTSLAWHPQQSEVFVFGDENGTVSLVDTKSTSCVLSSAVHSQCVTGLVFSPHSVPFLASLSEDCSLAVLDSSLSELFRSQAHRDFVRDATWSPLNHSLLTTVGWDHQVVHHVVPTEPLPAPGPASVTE

IC50 [1]	IC50 [2]	IC50 [3]	IC50 [4]	IC50 [5]	Structure (SMILES)	SAM/MTA Ratio [3]	MTAP Intact/Deleted Ratio [5]
50 to 500 nM	500 to 5000 nM	50 to 500 nM	1000 to 10000 nM	1000 to 10000 nM	COc1cnc(NC2CCC2)cc1C(=O)NC[C@H](O)CN1CCc2cc(OCc3ocnc3C)ccc2C1 [Compound 602]	A (a Ki ratio greater than or equal to 10 fold between the Ki in the presence of SAM and the Ki in the presence of MTA)	C* (an IC50 ratio of less than 3 fold between the IC50 in the HAP1 MTAP-intact cell line and the HAP1 MTAP-deleted cell line)
50 to 500 nM	500 to 5000 nM	50 to 500 nM	1000 to 10000 nM	< 1000 nM	COc1cc(C(=O)NC[C@H](O)CN2CCc3c(ccc(OCc4ocnc4C)c3C)C2)cc(NC2CCN(C(C)=O)CC2)n1 [Compound 604, (S)-2-((1-acetylpiperidin-4-yl)amino)-N-(2-hydroxy-3-[5-methyl-6-((4-methyloxazol-5-yl)methoxy)-3,4-dihydroisoquinolin-2(1H)-yl)propyl)-6-methoxyisonicotinamide]	A (a Ki ratio greater than or equal to 10 fold between the Ki in the presence of SAM and the Ki in the presence of MTA)	A* (an IC50 ratio greater than or equal to 10 fold between the IC50 in the HAP1 MTAP-intact cell line and the HAP1 MTAP-deleted cell line)
50 to 500 nM	≥ 5000 nM	50 to 500 nM	≥ 10000 nM	1000 to 10000 nM	CC(=O)N(C)[C@H]1CC[C@H](Nc2cc(C(=O)NC[C@H](O)CN3CCc4c(ccc(OCc5cnco5)c4C)C3)ncn2)CC1 [Compound 605, N-[(2S)-2-hydroxy-3-{5-methyl-6-[(1,3-oxazol-5-yl)methoxy]-1,2,3,4-tetrahydroisoquinolin-2-yl}propyl]-6-{[(1r,4r)-4-(N-methylacetamido)cyclohexyl]amino}pyrimidine-4-carboxamide]	A (a Ki ratio greater than or equal to 10 fold between the Ki in the presence of SAM and the Ki in the presence of MTA)	B* (an IC50 ratio greater than or equal to 3 fold but lower than 10 fold between the IC50 in the HAP1 MTAP-intact cell line and the HAP1 MTAP-deleted cell line)
50 to 500 nM	500 to 5000 nM	50 to 500 nM	≥ 10000 nM	1000 to 10000 nM	CC(=O)N1CCC(Nc2cncc(C(=O)NC[C@H](O)CN3CCc4c(ccc(OCc5cnco5)c4C)C3)c2)CC1 [Compound 606, 5-[(1-acetylpiperidin-4-yl)amino]-N-[(2S)-2-hydroxy-3-{5-methyl-6-[(1,3-oxazol-5-yl)methoxy]-1,2,3,4-tetrahydroisoquinolin-2-yl}propyl]pyridine-3-carboxamide]	A (a Ki ratio greater than or equal to 10 fold between the Ki in the presence of SAM and the Ki in the presence of MTA)	C* (an IC50 ratio of less than 3 fold between the IC50 in the HAP1 MTAP-intact cell line and the HAP1 MTAP-deleted cell line)
500 to 5000 nM	500 to 5000 nM	< 50 nM	1000 to 10000 nM	< 1000 nM	Cc1ncoc1COc1ccc2c(c1)CCN(C[C@@H](O)CNC(=O)c1ccnc(NC3CC4(CCC4)C3)c1)C2 [Compound 609, (S)—N-(2-hydroxy-3-(6-((4-methyloxazol-5-yl)methoxy)-3,4-dihydroisoquinolin-2(1H)-yl)propyl)-2-(spiro[3.3]heptan-2-ylamino)isonicotinamide]	A (a Ki ratio greater than or equal to 10 fold between the Ki in the presence of SAM and the Ki in the presence of MTA)	B* (an IC50 ratio greater than or equal to 3 fold but lower than 10 fold between the IC50 in the HAP1 MTAP-intact cell line and the HAP1 MTAP-deleted cell line)
50 to 500 nM	50 to 500 nM	< 50 nM	1000 to 10000 nM	1000 to 10000 nM	Cc1ncoc1COc1ccc2c(c1)CCN(C[C@@H](O)CNC(=O)c1cc(NC3CC4(CCC4)C3)nc(N3CCN(C(=O)C4CC4)CC3)c1)C2 [Compound 610, (S)-2-(4-(cyclopropanecarbonyl)piperazin-1-yl)-N-(2-hydroxy-3-(6-((4-methyloxazol-5-yl)methoxy)-3,4-dihydroisoquinolin-2(1H)-yl)propyl)-6-(spiro[3.3]heptan-2-ylamino)isonicotinamide]	A (a Ki ratio greater than or equal to 10 fold between the Ki in the presence of SAM and the Ki in the presence of MTA)	C* (an IC50 ratio of less than 3 fold between the IC50 in the HAP1 MTAP-intact cell line and the HAP1 MTAP-deleted cell line)
50 to 500 nM	50 to 500 nM	< 50 nM	< 1000 nM	< 1000 nM	Cc1ncoc1COc1ccc2c(c1)CCN(C[C@@H](O)CNC(=O)c1cc(NC3CC4(CC4)C3)nc(N3CCN(C(=O)C4CC4)CC3)c1)C2 [Compound 611, (S)-2-(4-(cyclopropanecarbonyl)piperazin-1-yl)-N-(2-hydroxy-3-(6-((4-methyloxazol-5-yl)methoxy)-3,4-dihydroisoquinolin-2(1H)-yl)propyl)-6-(spiro[2.3]hexan-5-ylamino)isonicotinamide]	A (a Ki ratio greater than or equal to 10 fold between the Ki in the presence of SAM and the Ki in the presence of MTA)	B* (an IC50 ratio greater than or equal to 3 fold but lower than 10 fold between the IC50 in the HAP1 MTAP-intact cell line and the HAP1 MTAP-deleted cell line)

Structure (SMILES)	IC50 [1]	IC50 [2]	IC50 [3]	IC50 [4]	IC50 [5]	SAM/MTA Ratio [3]	MTAP Intact/Deleted Ratio [5]
Cc1ncoc1COc1ccc2c(c1)CCN(C[C@@H](O)CNC(=O)c1cc(Nc3cccnc3)nc(N3[C@@H]4CC[C@H]3COC4)c1)C2 [Compound 603, 2-((1R,5S)-3-oxa-8-azabicyclo[3.2.1]octan-8-yl)-N—((S)-2-hydroxy-3-(6-((4-methyloxazol-5-yl)methoxy)-3,4-dihydroisoquinolin-2(1H)-yl)propyl)-6-(pyridin-3-ylamino)isonicotinamide]	50 to 500 nM	500 to 5000 nM	< 50 nM	1000 to 10000 nM	< 1000 nM	A (a Ki ratio greater than or equal to 10 fold between the Ki in the presence of SAM and the Ki in the presence of MTA)	B* (an IC50 ratio greater than or equal to 3 fold but lower than 10 fold between the IC50 in the HAP1 MTAP-intact cell line and the HAP1 MTAP-deleted cell line)
Cc1ncoc1COc1ccc2c(c1)CCN(C[C@@H](O)CNC(=O)c1cc(NC3CCC3)ncc1Cl)C2 [Compound 607, 5-chloro-2-(cyclobutylamino)-N-[(2S)-2-hydroxy-3-[6-[(4-methyloxazol-5-yl)methoxy]-3,4-dihydro-1H-isoquinolin-2-yl]propyl]pyridine-4-carboxamide]	50 to 500 nM	≥ 5000 nM	50 to 500 nM	< 1000 nM	< 1000 nM	A (a Ki ratio greater than or equal to 10 fold between the Ki in the presence of SAM and the Ki in the presence of MTA)	C* (an IC50 ratio of less than 3 fold between the IC50 in the HAP1 MTAP-intact cell line and the HAP1 MTAP-deleted cell line)
